Patent US10005773B2, “1-(4-pyrimidinyl)-1H-pyrrolo[3,2-c]pyridine derivatives as NIK inhibitors” (Janssen Pharmaceutica NV, priority 2013, dated 2018)
pEC50, pIC50: −log10 of the molar value.

Legend:
[1] = molecular target: T1, Recombinant Human NF-kappaB-Inducing Kinase (NIK/MAP3K14) (Homo sapiens, UniProt Q99558); assay: Biological Assay A: inhibition of recombinant human NIK/MAP3K14 activity (MSD, MBP substrate); settings: 25 μM ATP, 10 nM NIK/MAP3K14, 1 h at 25° C.; averaged over all batches; read-out: Biochemical (MSD MBP) IC50
Procedure: Inhibition of Recombinant Human NF-kappaB-Inducing Kinase (NIKIMAP3K14) Activity
Assay buffer was 50 mM Tris pH 7.5 containing 1 mM ethylene glycol tetraacetic acid (EGTA), 1 mM dithiothreitol (DTT), 0.1 mM Na3VO4, 5 mM MgCl2, 0.01% Tween® 20. Assays were carried out in 384 well Mesoscale high binding plates which had been coated with myelin basic protein (MBP) and blocked with bovine serum albumin to prevent non-specific protein binding. All compounds tested were dissolved in dimethyl sulfoxide (DMSO) and further dilutions were made in assay buffer. Final DMSO concentration was 1% (v/v) in assays. Incubations consisted of compound (1% DMSO in control and blank wells), 25 μM Adenosine-5′-triphosphate (ATP), and 10 nM NIK/MAP3K14 substituting enzyme with buffer in the blank wells. Incubations were carried out for 1 h at 25° C. and were followed by washing and sequential incubation with rabbit anti-phospho-MBP and anti-rabbit Ig Sulfotag antibody before reading bound Sulfotag on a Mesoscale Discovery. Signal obtained in the wells containing blank samples was subtracted from all other wells and IC50's were determined by fitting a sigmoidal curve to % inhibition of control versus Log10 compound concentration.

[2] = molecular target: T1, Recombinant Human NF-kappaB-Inducing Kinase (NIK/MAP3K14); assay: Biological Assay A2: inhibition of auto-phosphorylation of recombinant human NIK/MAP3K14 (AlphaScreen); assay type: biochemical; settings: 25 microM ATP, 0.2 nM NIK/MAP3K14, 1 h at 25° C., averaged over all batches, read-out: Alpha-Screen IC50
Procedure: Inhibition of Auto-Phosphorylation of Recombinant Human NF-kappaB-Inducing Kinase (NIKIMAP3K14) Activity (AlphaScreen®)
NIK/MAP3K14 auto-phosphorylation activity was measured using the AlphaScreen® (ascreen) format (Perkin Elmer). All compounds tested were dissolved in dimethyl sulfoxide (DMSO) and further dilutions were made in assay buffer. Final DMSO concentration was 1% (v/v) in assays. Assay buffer was 50 mM Tris pH 7.5 containing 1 mM EGTA (ethylene glycol tetraacetic acid), 1 mM DTT (dithiothreitol), 0.1 mM Na3VO4, 5 mM MgCl2, 0.01% Tween® 20. Assays were carried out in 384 well Alphaplates (Perkin Elmer). Incubations consisted of compound, 25 microM Adenosine-5′-triphosphate (ATP), and 0.2 nM NIK/MAP3K14. Incubations were initiated by addition of GST-tagged NIK/MAP3K14 enzyme, carried out for 1 h at 25° C. and terminated by addition of stop buffer containing anti-phospho-IKK Ser176/180 antibody. Protein A Acceptor and Glutathione-Donor beads were added before reading using an EnVision® Multilabel Plate Reader (Perkin Elmer). Signal obtained in the wells containing blank samples was subtracted from all other wells and IC50's were determined by fitting a sigmoidal curve to % inhibition of control versus Log10 compound concentration.

[3] = test system: P-IKKα levels in L363 cells; assay: Biological Assay B: effect of compounds on P-IKKα levels in L363 cells; assay type: cell-based; settings: Homo sapiens, L-363, BAFF stimulated, 2 hr treatment, averaged over all batches, read-out: IKKα Cellular IC50
Procedure: Effect of Compounds on P-IKKα Levels in L363 Cells
All compounds tested were dissolved in DMSO and further dilutions were made in culture medium. Final DMSO concentration was 1% (v/v) in cell assays. The human L363 cells (ATCC) were cultured in RPMI 1640 medium supplemented with GlutaMax and 10% fetal calf serum (PAA). Cells were routinely maintained at densities of 0.2×10^6 cells per ml-1×10^6 cells per ml at 37° C. in a humidified 5% CO2 atmosphere. Cells were passaged twice a week splitting back to obtain the low density. Cells were seeded in 96 well plates (Nunc 167008) at 2×10^6 per ml media in a volume of 75 μl per well plus 25 μl 1 μg/ml recombinant human B-cell activating factor (BAFF/BLyS/TNFSF13B). Seeded cells were incubated at 37° C. in a humidified 5% CO2 atmosphere for 24 hr. Drugs and/or solvents were added (20 μl) to a final volume of 120 μl. Following 2 hr treatment plates were removed from the incubator and cell lysis was achieved by the addition of 30 μl 5× lysis buffer followed by shaking on a plate shaker at 4° C. for 10 min. At the end of this incubation lysed cells were centrifuged at 800×g for 20 min at 4° C. and the lysate was assessed for P-IKKα levels by sandwich immuno-assay carried out in anti-rabbit antibody coated Mesoscale plates. Within an experiment, the results for each treatment were the mean of 2 replicate wells. For initial screening purposes, compounds were tested using an 8 point dilution curve (serial 1:3 dilutions). For each experiment, controls (containing MG132 and BAFF but no test drug) and a blank incubation (containing MG132 and BAFF and 10 μM ADS125117, a test concentration known to give full inhibition) were run in parallel. The blank incubation value was subtracted from all control and sample values. To determine the IC50 a sigmoidal curve was fitted to the plot of % inhibition of control P-IKKα levels versus Log10 compound concentration.

JJN-3 cells = assay: Biological Assay C: antiproliferative activity on JJN-3 cells (CellTiter-Glo); assay type: cell-based; settings: Homo sapiens, 72 hr treatment
Procedure: (§1) Determination of Antiproliferative Activity on LP-1, L-363 and JJN-3 Cells
(§2) All compounds tested were dissolved in DMSO and further dilutions were made in culture medium. Final DMSO concentration was 0.3% (v/v) in cell proliferation assays. Viability was assessed using CellTiter-Glo cell viability assay kit (Promega). The human LP-1, L-363 and JJN-3 cells (DSMZ) were cultured in RPMI 1640 medium supplemented with 2 mM L-glutamine, and 10% fetal calf serum (PAA). Cells were routinely kept as suspension cells at 37° C. in a humidified 5% CO2 atmosphere. Cells were passaged at a seeding density of 0.2×10^6/ml twice a week. Cells were seeded in black tissue culture treated 96-well plates (Perkin Elmer). Densities used for plating ranged from 2,000 to 6,000 cells per well in a total volume of 75 μl medium. After twenty four hours, drugs and/or solvents were added (25 μl) to a final volume of 100 μl. Following 72 hr of treatment plates were removed from the incubator and allowed to equilibrate to room temperature for approx 10 min. 100 μl CellTiter-Glo reagent was added to each well that was then covered (Perkin Elmer Topseal) and shaken on plate shaker for 10 min. Luminescence was measured on a HTS Topcount (Perkin Elmer). Within an experiment, the results for each treatment were the mean of 2 replicate wells. For initial screening purposes, compounds were tested using a 9 point dilution curve (serial 1:3 dilutions). For each experiment, controls (containing no drug) and a blank incubation (containing cells read at the time of compound addition) were run in parallel. The blank value was subtracted from all control and sample values. For each sample, the mean value for cell growth (in relative light units) was expressed as a percentage of the mean value for cell growth of the control.

L-363 cells = assay: Biological Assay C: antiproliferative activity on L-363 cells (CellTiter-Glo); assay type: cell-based; settings: Homo sapiens, 72 hr treatment
Procedure: as §1, §2

LP-1 cells = assay: Biological Assay C: antiproliferative activity on LP-1 cells (CellTiter-Glo); assay type: cell-based; settings: Homo sapiens, 72 hr treatment
Procedure: as §1, §2

T1 sequence (Q99558 whole entry): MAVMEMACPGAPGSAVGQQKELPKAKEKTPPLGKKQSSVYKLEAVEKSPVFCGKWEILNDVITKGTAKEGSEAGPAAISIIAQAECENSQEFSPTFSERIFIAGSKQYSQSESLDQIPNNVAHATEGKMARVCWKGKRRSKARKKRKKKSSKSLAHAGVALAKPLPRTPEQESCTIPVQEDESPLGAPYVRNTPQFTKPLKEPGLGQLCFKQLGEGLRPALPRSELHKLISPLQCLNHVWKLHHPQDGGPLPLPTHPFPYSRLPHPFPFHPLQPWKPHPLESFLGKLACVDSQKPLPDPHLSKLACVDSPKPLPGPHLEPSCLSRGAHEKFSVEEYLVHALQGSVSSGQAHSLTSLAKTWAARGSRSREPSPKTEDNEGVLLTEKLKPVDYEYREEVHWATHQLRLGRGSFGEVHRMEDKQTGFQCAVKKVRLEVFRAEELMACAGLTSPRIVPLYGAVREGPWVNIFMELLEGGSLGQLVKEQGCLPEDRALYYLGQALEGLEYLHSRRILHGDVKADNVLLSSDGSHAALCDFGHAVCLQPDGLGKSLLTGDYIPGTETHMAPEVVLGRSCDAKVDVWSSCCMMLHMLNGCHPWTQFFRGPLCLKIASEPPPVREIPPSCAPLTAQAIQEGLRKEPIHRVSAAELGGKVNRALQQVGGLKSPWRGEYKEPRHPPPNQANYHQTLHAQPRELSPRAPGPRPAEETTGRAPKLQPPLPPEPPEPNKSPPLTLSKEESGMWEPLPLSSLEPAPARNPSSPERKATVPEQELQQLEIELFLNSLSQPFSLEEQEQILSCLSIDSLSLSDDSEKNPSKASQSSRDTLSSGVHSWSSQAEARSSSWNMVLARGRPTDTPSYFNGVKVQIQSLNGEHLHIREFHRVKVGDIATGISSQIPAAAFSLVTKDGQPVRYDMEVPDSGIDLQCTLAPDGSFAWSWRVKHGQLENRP

Row | SMILES | pIC50 [1] | pIC50 [2] | pIC50 [3] | pEC50 (JJN-3 cells) | pEC50 (L-363 cells) | pEC50 (LP-1 cells)
1 | Nc1ncc(F)c(-n2cc(CCCO)c3cnc(C#CC4(O)CCCC4)cc32)n1 [Compound 30] | 8.16 | 7.77 | 7.42 | 6.04 | 5.77 | 5.39
2 | CC(C)(O)CCc1cn(-c2ccnc(N)n2)c2cc(C#CC3(O)CCCC3)ncc12 [Compound 32] | 7.66 | 7.92 | 6.81 | 6.33 | 5.75 | 5.16
3 | CC(C)(O)C#Cc1cc2c(cn1)c(CCC#N)cn2-c1ccnc(N)n1 [Compound 36] | 7.60 | 7.92 | 7.74 | 6.70 | 6.44 | 5.34
4 | N#CCCc1cn(-c2ccnc(N)n2)c2cc(C#CC3(O)CCCC3)ncc12 [Compound 37] | 8.29 | 7.54 | 6.92 | 6.06 | 5.88 | 5.29

Continued by rising pIC50 [1], values first:

Row | pIC50 [1] | pIC50 [2] | pIC50 [3] | SMILES | pEC50 (JJN-3 cells) | pEC50 (L-363 cells) | pEC50 (LP-1 cells)
5 | 7.05 | 7.31 | 6.79 | CC(C)(O)C#Cc1cc2c(cn1)c(/C=C/C#N)cn2-c1ccnc(N)n1 [Compound 35] | 6.38 | 6.02 | 5.69
6 | 7.28 | 7.60 | 6.59 | CC(C)(O)C#Cc1cc2c(cn1)c(CCC(C)(C)O)cn2-c1nc(N)ncc1F [Compound 33] | 5.76 | 6.04 | 5.27
7 | 7.89 | 7.85 | 7.10 | CC(C)(O)C#Cc1cc2c(cn1)c(CCC(C)(C)O)cn2-c1ccnc(N)n1 [Compound 31] | 6.45 | 6.01 | 5.15
8 | 7.96 | 7.89 | 6.70 | CC(C)(O)CCc1cn(-c2nc(N)ncc2F)c2cc(C#CC3(O)CCCC3)ncc12 [Compound 34] | 5.77 | 5.65 | 5.47
